From the supplement of paper PMC10331698
± gives the standard deviation of the averaged measurements.

Legend:
Assay in all cases: LOEC (log10 uM (lowest observed effect concentration))
[1] = compound: CC(C)(C)C(=O)CC(=O)C(F)(F)C(F)(F)C(F)(F)F [(Heptafluorobutanoyl)pivaloylmethane]
Experimental: (§1)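 BioMAP Diversity Plus panel in human primary cell co-cultures, 4 concentrations in duplicate blinded samples. Responses are log10 fold change versus DMSO control, processed with tcpl v2.1.0. A hit is called when responses at any concentration exceed the cutoff (the larger of 3*bmad or log10(1.2)); the lowest observed effect concentration (modl_ga, log10 uM) is reported for hits.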

Perfluorooctanamidine = compound: N=C(N)C(F)(F)C(F)(F)C(F)(F)C(F)(F)C(F)(F)C(F)(F)C(F)(F)F [Perfluorooctanamidine]
Experimental: as §1

[2] = compound: O=C(O)C(F)(F)OC(F)(F)C(F)(F)OC(F)(F)C(F)(F)C(F)(F)C(F)(F)F [Perfluoro-3,6-dioxadecanoic acid]
Experimental: as §1

[3] = compound: C=CC(=O)OCCC(F)(F)C(F)(F)C(F)(F)C(F)(F)F [2-(Perfluorobutyl)ethyl acrylate]
Experimental: as §1

[4] = compound: O=C(O)C(F)(F)C(F)(F)C(F)(F)C(F)(F)C(F)(F)C(F)(F)C(F)(F)C(F)(F)Cl [9-Chloro-perfluorononanoic acid]
Experimental: as §1

[5] = compound: CNS(=O)(=O)C(F)(F)C(F)(F)C(F)(F)C(F)(F)C(F)(F)C(F)(F)C(F)(F)C(F)(F)F [N-Methylperfluorooctanesulfonamide]
Experimental: as §1

Azathioprine = compound: Cn1cnc([N+](=O)[O-])c1Sc1ncnc2[nH]cnc12 [Azathioprine]
Experimental: as §1

[6] = compound: O=C(O)C(F)(F)C(F)(F)C(F)(F)C(F)(F)C(F)(F)C(F)(F)C(F)(F)C(F)(F)C(F)(F)C(F)(F)C(F)(F)C(F)(F)F [Perfluorotridecanoic acid]
Experimental: as §1

[7] = compound: O=C(O)C(F)(F)C(F)(F)C(F)(F)C(F)(F)C(F)(F)C(F)(F)C(F)(F)C(F)(F)C(F)(F)C(F)(F)C(F)(F)C(F)(F)C(F)(F)F [Perfluorotetradecanoic acid]
Experimental: as §1

[8] = compound: O=P(O)(O)CCC(F)(F)C(F)(F)C(F)(F)C(F)(F)C(F)(F)C(F)(F)C(F)(F)C(F)(F)F [((Perfluorooctyl)ethyl)phosphonic acid]
Experimental: as §1

[9] = compound: O=S(=O)(O)C(F)(F)C(F)(F)C(F)(F)C(F)(F)F [Perfluorobutanesulfonic acid]
Experimental: as §1

[10] = compound: O=S(=O)(O)C(F)(F)C(F)(F)C(F)(F)C(F)(F)C(F)(F)C(F)(F)C(F)(F)C(F)(F)F [Perfluorooctanesulfonic acid]
Experimental: as §1

[11] = compound: O=C(O)CCC(F)(F)C(F)(F)C(F)(F)C(F)(F)C(F)(F)F [2H,2H,3H,3H-Perfluorooctanoic acid]
Experimental: as §1

[12] = compound: O=S(=O)(O)C(F)(F)C(F)(F)C(F)(F)C(F)(F)C(F)(F)C(F)(F)C(F)(F)C(F)(F)F [Potassium perfluorooctanesulfonate]
Experimental: as §1

Perfluorooctanamide = compound: NC(=O)C(F)(F)C(F)(F)C(F)(F)C(F)(F)C(F)(F)C(F)(F)C(F)(F)F [Perfluorooctanamide]
Experimental: as §1

[13] = compound: FC(F)(F)C(F)(F)C(F)(F)C(F)(F)C(F)(F)C(F)(F)C(F)(F)CCI [1-Iodo-1H,1H,2H,2H-perfluorononane]
Experimental: as §1

3C Proliferation down
LOEC (log10 uM) [1]: 1.78
LOEC (log10 uM) (Perfluorooctanamidine): 1.78
LOEC (log10 uM) [2]: 1.04 ± 1
LOEC (log10 uM) [3]: 1.78
LOEC (log10 uM) [4]: 1.78
LOEC (log10 uM) [5]: 1.54 ± 0.34
LOEC (log10 uM) (Azathioprine): 1.48
LOEC (log10 uM) [6]: 1.22 ± 0.37
LOEC (log10 uM) [7]: -0.199 ± 0.71
LOEC (log10 uM) [8]: 0.801 ± 0.71

3C Thrombomodulin up
LOEC (log10 uM) [1]: 1.78
LOEC (log10 uM) [4]: 1.78

IMphg IL8 up
LOEC (log10 uM) [9]: 1.78

IMphg IL10 down
LOEC (log10 uM) [10]: 1.78
LOEC (log10 uM) [11]: 1.78
LOEC (log10 uM) [12]: 1.78
LOEC (log10 uM) [2]: 1.78
LOEC (log10 uM) [4]: 1.78
LOEC (log10 uM) (Azathioprine): 1.48
LOEC (log10 uM) [8]: 1.78

KF3CT MMP9 down
LOEC (log10 uM) [4]: 1.3
LOEC (log10 uM) (Perfluorooctanamide): 1.78

LPS PGE2 up
LOEC (log10 uM) [1]: 1.78
LOEC (log10 uM) [8]: 1.78

hDFCGF Proliferation down
LOEC (log10 uM) (Perfluorooctanamidine): 1.78
LOEC (log10 uM) [12]: 1.78
LOEC (log10 uM) [3]: 1.54 ± 0.34
LOEC (log10 uM) [4]: 1.78
LOEC (log10 uM) (Azathioprine): 1.48
LOEC (log10 uM) [6]: 0.477
LOEC (log10 uM) [13]: 0.301
LOEC (log10 uM) [8]: 1.78
